Tests used:
[1] = molecular target: Serine/threonine-protein kinase TAO3 (Homo sapiens, UniProt Q9H2K8); experiment: Binding affinity to recombinant human full length N-terminal GST-tagged TAOK3 expressed in baculovirus expression system using PKC-epsilon peptide as substrate incubated for 1 hr by TR-FRET assay
[2] = molecular target: Serine/threonine-protein kinase N1 (Homo sapiens, UniProt Q16512); experiment: Binding affinity to recombinant full-length N-terminal His-FLAG-GST-tagged PKN1 (unknown origin) expressed in baculovirus infected Sf9 insect cells incubated for 1 hr by TR-FRET assay
[3] = molecular target: Mitogen-activated protein kinase kinase kinase 11 (Homo sapiens, UniProt Q16584); experiment: Binding affinity to recombinant N-terminal His-FLAG-GST-tagged MAP3K11 (unknown origin) (99 to 398 residues) expressed in baculovirus infected Sf9 insect cells incubated for 1 hr by TR-FRET assay
[4] = molecular target: Testis-specific serine/threonine-protein kinase 1 (Homo sapiens, UniProt Q9BXA7); experiment: Binding affinity to recombinant full-length N-terminal His-FLAG-GST-tagged TSSK1B (unknown origin) expressed in baculovirus infected Sf9 insect cells incubated for 1 hr by TR-FRET assay
[5] = molecular target: Vascular endothelial growth factor receptor 2 (Homo sapiens, UniProt P35968); experiment: Binding affinity to recombinant human full length N-terminal GST-tagged KDR (790 to 1356 residues) expressed in baculovirus expression system using CSKtide as substrate incubated for 1 hr by TR-FRET assay
[6] = molecular target: Serine/threonine-protein kinase TNNI3K (Homo sapiens, UniProt Q59H18); experiment: Binding affinity to recombinant N-terminal His-FLAG-GST-tagged TNNI3K (unknown origin) (1 to 727 residues) expressed in baculovirus infected Sf9 insect cells incubated for 1 hr by TR-FRET assay
[7] = molecular target: Serine/threonine-protein kinase SIK1 (Homo sapiens, UniProt P57059); experiment: Binding affinity to recombinant full-length N-terminal His-FLAG-tagged SIK1 (unknown origin) expressed in baculovirus infected Sf9 insect cells incubated for 1 hr by TR-FRET assay
[8] = molecular target: Glycogen synthase kinase-3 alpha (Homo sapiens, UniProt P49840); experiment: Binding affinity to recombinant full-length N-terminal His-GST-tagged GSK3A (unknown origin) expressed in baculovirus infected Sf9 insect cells incubated for 1 hr by TR-FRET assay
[9] = molecular target: Rhodopsin kinase GRK1 (Homo sapiens, UniProt Q15835); experiment: Binding affinity to recombinant full-length N-terminal His-FLAG-GST-tagged GRK1 (unknown origin) expressed in baculovirus infected Sf9 insect cells incubated for 1 hr by TR-FRET assay
[10] = molecular target: Phosphorylase b kinase gamma catalytic chain, skeletal muscle/heart isoform (Homo sapiens, UniProt Q16816); experiment: Binding affinity to recombinant full-length N-terminal His-FLAG-GST-tagged PHKG1 (unknown origin) expressed in baculovirus infected Sf9 insect cells incubated for 1 hr by TR-FRET assay
[11] = molecular target: AMP-activated protein kinase (AMPK) alpha-1/beta-1/gamma-1 (Homo sapiens, UniProt P54619+Q13131+Q9Y478); experiment: Binding affinity to recombinant human full-length GST N-Terminal tagged-AMPK alpha1/N-Terminal GST tagged-AMPK beta1/N-Terminal his-tagged AMPK gamma1 expressed in baculovirus expression system incubated for 1 hr by TR-FRET assay
[12] = molecular target: LIM domain kinase 1 (Homo sapiens, UniProt P53667); experiment: Binding affinity to truncated human N-terminal GST-tagged LIMK1 (285 to 638 residues) expressed in baculovirus expression system using cofilin2 as substrate incubated for 1 hr by TR-FRET assay
[13] = molecular target: Fibroblast growth factor receptor 2 (Homo sapiens, UniProt P21802); experiment: Binding affinity to recombinant N-terminal His-FLAG-GST-tagged FGFR2 (unknown origin) (399 to 821 residues) expressed in baculovirus infected Sf9 insect cells incubated for 1 hr by TR-FRET assay
[14] = molecular target: ALK tyrosine kinase receptor (Homo sapiens, UniProt Q9UM73); experiment: Binding affinity to recombinant human […] N-terminal GST-tagged ALK (1058 to 1620 residues) expressed in baculovirus expression system using Srctide as substrate incubated for 1 hr by TR-FRET assay
[15] = molecular target: RAC-gamma serine/threonine-protein kinase (Homo sapiens, UniProt Q9Y243); experiment: Binding affinity to recombinant full-length N-terminal His-FLAG-GST-tagged AKT3 (unknown origin) (108 to 479 residues) expressed in baculovirus infected Sf9 insect cells incubated for 1 hr by TR-FRET assay
[16] = molecular target: Myosin-IIIb (Homo sapiens, UniProt Q8WXR4); experiment: Binding affinity to recombinant full-length N-terminal His-FLAG-GST-tagged MYO3B (unknown origin) (1 to 362 residues) expressed in baculovirus infected Sf9 insect cells incubated for 1 hr by TR-FRET assay
[17] = molecular target: Homeodomain-interacting protein kinase 4 (Homo sapiens, UniProt Q8NE63); experiment: Binding affinity to recombinant full-length N-terminal His-FLAG-tagged HIPK4 (unknown origin) expressed in baculovirus infected Sf9 insect cells incubated for 1 hr by TR-FRET assay
[18] = molecular target: Serine/threonine-protein kinase 26 (Homo sapiens, UniProt Q9P289); experiment: Binding affinity to recombinant full-length N-terminal His-FLAG-tagged MST4 (unknown origin) expressed in baculovirus infected Sf9 insect cells incubated for 1 hr by TR-FRET assay
[19] = molecular target: High affinity nerve growth factor receptor (Homo sapiens, UniProt P04629); experiment: Binding affinity to recombinant full-length N-terminal His-FLAG-GST-tagged NTRK1 (unknown origin) (436 to 790 residues) expressed in baculovirus infected Sf9 insect cells incubated for 1 hr by TR-FRET assay
[20] = molecular target: NUAK family SNF1-like kinase 1 (Homo sapiens, UniProt O60285); experiment: Binding affinity to recombinant full-length N-terminal His-FLAG-GST-tagged NUAK1 (unknown origin) expressed in baculovirus infected Sf9 insect cells incubated for 1 hr by TR-FRET assay
[21] = molecular target: Rho-associated protein kinase 1 (Homo sapiens, UniProt Q13464); experiment: Binding affinity to recombinant full-length N-terminal His-FLAG-GST-tagged ROCK1 (unknown origin) (1 to 477 residues) expressed in baculovirus infected Sf9 insect cells incubated for 1 hr by TR-FRET assay
[22] = molecular target: Serine/threonine-protein kinase Sgk1 (Homo sapiens, UniProt O00141); experiment: Binding affinity to recombinant full-length N-terminal His-FLAG-GST-tagged SGK1 (unknown origin) (60 to 431 residues) expressed in baculovirus infected Sf9 insect cells incubated for 1 hr by TR-FRET assay
[23] = molecular target: Serine/threonine-protein kinase pim-1 (Homo sapiens, UniProt P11309); experiment: Binding affinity to recombinant human full-length N-terminal his-tagged PIM1 expressed in baculovirus expression system using S6K2 peptide as substrate incubated for 1 hr by TR-FRET assay
[24] = molecular target: Ribosomal protein S6 kinase alpha-6 (Homo sapiens, UniProt Q9UK32); experiment: Binding affinity to recombinant full-length N-terminal His-FLAG-tagged RPS6KA6 (unknown origin) expressed in baculovirus infected Sf9 insect cells incubated for 1 hr by TR-FRET assay
Sequence of Ribosomal protein S6 kinase alpha-6 (Q9UK32 whole entry): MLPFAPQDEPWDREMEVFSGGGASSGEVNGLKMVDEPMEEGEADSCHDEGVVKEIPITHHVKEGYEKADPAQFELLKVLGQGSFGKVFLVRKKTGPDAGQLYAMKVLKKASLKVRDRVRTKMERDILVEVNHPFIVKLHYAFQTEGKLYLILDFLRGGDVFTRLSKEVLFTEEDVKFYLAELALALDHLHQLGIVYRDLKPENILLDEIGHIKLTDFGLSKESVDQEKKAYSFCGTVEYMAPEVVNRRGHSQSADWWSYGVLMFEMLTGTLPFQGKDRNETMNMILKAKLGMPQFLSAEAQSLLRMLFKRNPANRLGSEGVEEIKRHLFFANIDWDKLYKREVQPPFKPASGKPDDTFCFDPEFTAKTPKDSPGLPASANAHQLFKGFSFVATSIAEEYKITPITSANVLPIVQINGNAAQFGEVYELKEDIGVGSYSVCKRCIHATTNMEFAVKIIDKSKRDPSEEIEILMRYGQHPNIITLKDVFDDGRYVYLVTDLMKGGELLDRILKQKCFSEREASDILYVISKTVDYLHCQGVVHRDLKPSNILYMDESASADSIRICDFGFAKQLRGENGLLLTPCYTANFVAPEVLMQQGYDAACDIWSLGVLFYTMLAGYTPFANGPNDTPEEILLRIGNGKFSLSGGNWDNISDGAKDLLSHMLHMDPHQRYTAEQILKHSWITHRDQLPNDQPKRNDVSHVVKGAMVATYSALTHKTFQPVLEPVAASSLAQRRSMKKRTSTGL

Sequence of Mitogen-activated protein kinase kinase kinase 11 (Q16584 whole entry, the tested form may be a part): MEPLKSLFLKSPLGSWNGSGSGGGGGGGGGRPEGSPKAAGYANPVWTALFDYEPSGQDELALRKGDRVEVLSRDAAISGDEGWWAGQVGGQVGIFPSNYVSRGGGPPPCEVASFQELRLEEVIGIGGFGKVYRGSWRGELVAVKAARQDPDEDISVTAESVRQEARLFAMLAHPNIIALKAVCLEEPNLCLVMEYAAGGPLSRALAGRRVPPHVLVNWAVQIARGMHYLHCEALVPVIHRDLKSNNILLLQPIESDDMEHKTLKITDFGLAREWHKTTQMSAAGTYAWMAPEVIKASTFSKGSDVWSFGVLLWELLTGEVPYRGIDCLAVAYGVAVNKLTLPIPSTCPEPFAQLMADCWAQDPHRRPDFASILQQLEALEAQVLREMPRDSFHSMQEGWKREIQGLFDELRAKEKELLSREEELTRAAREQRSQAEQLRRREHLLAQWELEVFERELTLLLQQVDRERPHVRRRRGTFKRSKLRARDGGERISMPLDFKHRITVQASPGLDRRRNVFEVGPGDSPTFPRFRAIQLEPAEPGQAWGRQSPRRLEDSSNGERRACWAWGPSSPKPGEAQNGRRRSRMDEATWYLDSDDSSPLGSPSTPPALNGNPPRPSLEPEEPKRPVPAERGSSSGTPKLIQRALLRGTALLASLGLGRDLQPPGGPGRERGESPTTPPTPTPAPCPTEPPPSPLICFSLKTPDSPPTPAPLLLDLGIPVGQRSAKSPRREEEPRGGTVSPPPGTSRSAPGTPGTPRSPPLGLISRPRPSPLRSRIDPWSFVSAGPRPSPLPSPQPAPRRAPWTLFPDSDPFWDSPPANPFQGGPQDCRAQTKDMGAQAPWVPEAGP
Sequence of Serine/threonine-protein kinase 26 (Q9P289 whole entry, the tested form may be a part): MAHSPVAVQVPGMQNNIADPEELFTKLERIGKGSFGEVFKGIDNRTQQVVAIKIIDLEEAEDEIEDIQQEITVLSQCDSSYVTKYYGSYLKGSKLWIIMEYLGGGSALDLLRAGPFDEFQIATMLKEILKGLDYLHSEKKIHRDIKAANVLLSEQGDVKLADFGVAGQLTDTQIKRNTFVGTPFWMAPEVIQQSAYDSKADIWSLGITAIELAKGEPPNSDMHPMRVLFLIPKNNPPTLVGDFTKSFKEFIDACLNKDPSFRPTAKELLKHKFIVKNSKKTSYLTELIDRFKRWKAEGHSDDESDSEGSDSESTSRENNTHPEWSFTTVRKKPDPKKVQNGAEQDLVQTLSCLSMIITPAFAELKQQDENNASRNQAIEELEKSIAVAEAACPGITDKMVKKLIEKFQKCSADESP
Sequence of Serine/threonine-protein kinase pim-1 (P11309 whole entry): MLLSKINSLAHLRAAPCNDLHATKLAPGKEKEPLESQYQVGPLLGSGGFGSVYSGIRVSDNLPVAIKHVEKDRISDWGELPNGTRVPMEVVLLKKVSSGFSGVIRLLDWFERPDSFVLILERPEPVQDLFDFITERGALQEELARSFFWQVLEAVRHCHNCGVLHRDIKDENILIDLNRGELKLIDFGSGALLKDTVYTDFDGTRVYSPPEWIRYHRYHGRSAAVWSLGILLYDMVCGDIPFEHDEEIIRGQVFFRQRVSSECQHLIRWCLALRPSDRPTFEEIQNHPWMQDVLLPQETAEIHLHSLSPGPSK
Sequence of Fibroblast growth factor receptor 2 (P21802 whole entry, the tested form may be a part): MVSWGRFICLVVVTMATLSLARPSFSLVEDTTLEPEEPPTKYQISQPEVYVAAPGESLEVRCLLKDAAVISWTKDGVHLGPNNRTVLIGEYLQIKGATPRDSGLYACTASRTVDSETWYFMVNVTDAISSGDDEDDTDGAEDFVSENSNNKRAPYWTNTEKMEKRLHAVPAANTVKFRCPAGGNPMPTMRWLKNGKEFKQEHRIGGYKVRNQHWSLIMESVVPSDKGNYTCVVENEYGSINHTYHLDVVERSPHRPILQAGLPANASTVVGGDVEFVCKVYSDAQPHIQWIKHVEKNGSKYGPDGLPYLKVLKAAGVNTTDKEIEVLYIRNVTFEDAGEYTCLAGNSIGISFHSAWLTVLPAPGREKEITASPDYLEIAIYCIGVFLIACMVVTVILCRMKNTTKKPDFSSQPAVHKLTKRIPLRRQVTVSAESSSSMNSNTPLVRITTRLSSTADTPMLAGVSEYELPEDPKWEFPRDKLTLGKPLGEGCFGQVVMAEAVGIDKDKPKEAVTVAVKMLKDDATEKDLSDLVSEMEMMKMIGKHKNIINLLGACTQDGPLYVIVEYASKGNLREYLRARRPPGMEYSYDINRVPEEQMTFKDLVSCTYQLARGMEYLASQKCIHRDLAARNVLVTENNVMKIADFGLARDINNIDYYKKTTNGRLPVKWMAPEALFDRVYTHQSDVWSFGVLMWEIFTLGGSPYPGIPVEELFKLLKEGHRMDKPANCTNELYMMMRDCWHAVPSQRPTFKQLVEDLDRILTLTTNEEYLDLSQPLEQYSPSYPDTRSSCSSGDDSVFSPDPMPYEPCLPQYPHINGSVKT
Sequence of ALK tyrosine kinase receptor (Q9UM73 whole entry, the tested form may be a part): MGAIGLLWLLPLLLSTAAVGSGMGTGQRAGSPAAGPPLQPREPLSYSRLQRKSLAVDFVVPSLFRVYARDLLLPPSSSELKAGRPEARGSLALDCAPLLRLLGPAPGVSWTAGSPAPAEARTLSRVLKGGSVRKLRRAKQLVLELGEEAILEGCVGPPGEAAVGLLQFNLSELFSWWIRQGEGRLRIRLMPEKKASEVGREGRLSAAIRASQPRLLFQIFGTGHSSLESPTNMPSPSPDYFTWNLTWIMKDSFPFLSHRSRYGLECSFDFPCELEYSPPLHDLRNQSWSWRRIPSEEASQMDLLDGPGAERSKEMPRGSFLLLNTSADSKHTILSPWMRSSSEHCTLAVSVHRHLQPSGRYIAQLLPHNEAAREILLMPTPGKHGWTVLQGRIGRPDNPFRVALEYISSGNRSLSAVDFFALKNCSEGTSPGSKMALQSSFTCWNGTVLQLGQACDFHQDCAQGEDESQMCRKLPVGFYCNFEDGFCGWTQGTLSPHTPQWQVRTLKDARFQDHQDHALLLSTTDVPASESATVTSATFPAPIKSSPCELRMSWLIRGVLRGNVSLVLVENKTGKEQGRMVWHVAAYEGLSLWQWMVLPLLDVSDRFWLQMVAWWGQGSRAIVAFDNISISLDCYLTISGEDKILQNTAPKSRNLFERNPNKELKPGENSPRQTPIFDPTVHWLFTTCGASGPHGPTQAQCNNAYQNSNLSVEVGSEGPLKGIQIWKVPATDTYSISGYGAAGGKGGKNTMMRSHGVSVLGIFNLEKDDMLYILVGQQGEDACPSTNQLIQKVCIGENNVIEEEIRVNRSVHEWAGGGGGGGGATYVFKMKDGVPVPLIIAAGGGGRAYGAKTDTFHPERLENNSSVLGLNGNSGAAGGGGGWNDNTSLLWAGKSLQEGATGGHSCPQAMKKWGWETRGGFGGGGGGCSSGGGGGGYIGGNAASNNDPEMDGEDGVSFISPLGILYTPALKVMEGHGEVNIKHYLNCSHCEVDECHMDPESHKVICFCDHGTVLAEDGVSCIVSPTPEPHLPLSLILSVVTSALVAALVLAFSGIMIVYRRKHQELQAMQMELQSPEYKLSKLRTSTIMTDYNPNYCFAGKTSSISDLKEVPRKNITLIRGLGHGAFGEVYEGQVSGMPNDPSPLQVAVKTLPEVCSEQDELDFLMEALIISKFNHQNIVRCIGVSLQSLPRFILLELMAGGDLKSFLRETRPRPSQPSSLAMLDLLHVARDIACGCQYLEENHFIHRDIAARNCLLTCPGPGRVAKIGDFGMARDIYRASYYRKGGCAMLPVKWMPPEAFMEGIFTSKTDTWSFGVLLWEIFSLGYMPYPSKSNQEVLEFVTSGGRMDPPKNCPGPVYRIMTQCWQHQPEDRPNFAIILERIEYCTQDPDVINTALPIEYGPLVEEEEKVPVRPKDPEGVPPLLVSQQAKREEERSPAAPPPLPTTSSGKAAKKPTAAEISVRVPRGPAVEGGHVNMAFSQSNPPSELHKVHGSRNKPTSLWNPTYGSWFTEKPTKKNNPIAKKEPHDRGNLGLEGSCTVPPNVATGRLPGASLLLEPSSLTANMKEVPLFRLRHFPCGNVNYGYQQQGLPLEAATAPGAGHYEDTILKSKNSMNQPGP

| Compound | Kd [1] [nM] | Kd [2] [nM] | Kd [3] [nM] | Kd [4] [nM] | Kd [5] [nM] | Kd [6] [nM] | Kd [7] [nM] | Kd [8] [nM] | Kd [9] [nM] | Kd [10] [nM] | Kd [11] [nM] | Kd [12] [nM] | Kd [13] [nM] | Kd [14] [nM] | Kd [15] [nM] | Kd [16] [nM] | Kd [17] [nM] | Kd [18] [nM] | Kd [19] [nM] | Kd [20] [nM] | other results |
| --- | --- | --- | --- | --- | --- | --- | --- | --- | --- | --- | --- | --- | --- | --- | --- | --- | --- | --- | --- | --- | --- |
| CO[C@@H]1[C@H](NCCOCCOCCOCCNC(=O)CCC2=[N+]3C(=Cc4c(C)cc(C)n4[B-]3(F)F)C=C2)C[C@H]2O[C@]1(C)n1c3ccccc3c3c4c(c5c6ccccc6n2c5c31)C(=O)NC4 | 360 | 11 | 3 | 18 | 193 | 844 | 3 | 329 | 122 | 1 | 13 | 6 | 242 | 230 | 749 | 328 | 424 | 687 | 35 | 15 | Kd [21]: 35 nM; Kd [22]: 331 nM; Kd [23]: 207 nM; Kd [24]: 21 nM |
| CO[C@@H]1[C@H](N(C)CCOCCOCCOCCNC(=O)CCC2=[N+]3C(=Cc4c(C)cc(C)n4[B-]3(F)F)C=C2)C[C@H]2O[C@]1(C)n1c3ccccc3c3c4c(c5c6ccccc6n2c5c31)C(=O)NC4 | 293 | 6 | 4 | 19 | 135 | 1200 | 3 | 213 | 109 | 3 | 15 | 32 | 361 | 172 | 537 | 294 | 472 | 983 | 25 | 13 | Kd [21]: 26 nM; Kd [22]: 566 nM; Kd [23]: 285 nM; Kd [24]: 14 nM |

Reference: ChEMBL document CHEMBL4321812, “Structure-based rational design of staurosporine-based fluorescent probe with broad-ranging kinase affinity for kinase panel application” (Bioorg Med Chem Lett, 2019)
